Source: patent US12048689B2, “Pharmaceutical composition for preventing or treating inflammatory bowel disease acting as a functional antagonist for S1PR1 and S1PR4” (NEXTGEN BIOSCIENCE CO., LTD., priority 2022, dated 2024)
Values joined by “and” are separate entries in the source; they are usually repeats but may differ in a detail not shown here. Equal entries are not always repeated. Where two headings read alike, the source gives them in different places.

Assays:
DSS-induced colitis mice = assay: Dextran sulfate sodium (DSS)-induced colitis model, disease activity index; format: in vivo
Protocol: The effect of NXC736 for inflammatory bowel disease was evaluated using a dextran sulfate sodium (DSS)-induced colitis model. In the mouse model, inflammatory bowel disease was induced by administering DSS to mice in drinking water at a concentration of 2.5%. Treatment groups consisted of a test group administered NXC736, a positive control administered ozanimod or methotrexate (MTX), a vehicle group and a normal control, and each group had n=10. In the model in which inflammatory bowel disease was induced, NXC736, which is the compound of the present invention, was orally administered at a dose of 5 and 10 mg/kg once a day for 7 days, ozanimod as a positive control material was orally administered at 5 mg/kg once a day, and methotrexate (MTX) as a positive control material was intraperitoneally administered at 3 mg/kg three times a week.
FIG. 3 illustrates the disease activity index (DAI) of DSS-induced colitis mice and the area under the disease activity index curve (AUC) of DSS-induced colitis mice. […] The calculation criteria for DAI are shown in the following Table 1, and the DAI was evaluated on days 0, 1, 2, 3, 4, 5, 6, 7, and 8.

[1] = test system: T cells, CD4 T cells, and CD8 T cells; assay: Suppressive effect on mouse immune cells (FACS of peripheral blood and bone marrow after oral administration); format: in vivo; conditions: mice; for Cell number in bone marrow, percentage of control based on 0 time: listed as NXC7363, 3 mg/kg
Protocol: To confirm whether NXC736, which acts on the S1P receptor, also has an effect on lymphocyte reduction, the effect of NXC736 on immune cells was evaluated. After oral administration of NXC736 at 3 mg/kg/day to mice, changes in lymphocytes in the peripheral blood (PB) stream and bone marrow (BM) were classified for T cells, CD4T cells, and CD8T cells, and FACS analysis was performed at 0, 4, 8, 12, 24, and 36 hours after the administration of a test material. A cell number was measured and shown as a percentage (%) of a control based on 0 time.

[2] = test system: T cells, CD4 T cells, and CD8 T cells; assay: Suppressive effect on rat immune cells (FACS of peripheral blood and bone marrow after oral administration); format: in vivo; conditions: SD rats
Protocol: To evaluate the effect of NXC736 on rat immune cells, after oral administration of NXC736 at 10 mg/kg/day to SD rats, changes in lymphocytes in the peripheral blood (PB) stream and bone marrow (BM) were classified for T cells, CD4 T cells, and CD8 T cells, and FACS analysis was performed at 0, 4, 8, 12, 24, 36, and 48 hours after the administration of a test material. A cell number was measured and shown as a percentage (%) of a control based on 0 time, and the numbers of T cells, CD4 T cells, and CD8 T cells were measured and shown as a percentage (%) of a control based on 0 time.

[3] = Cardiovascular system in beagle dogs (telemetry heart rate, general symptoms); format: in vivo; conditions: oral 12.5, 25 and 50 mg/kg
Protocol: NXC736 was orally administered to four male beagle dogs under unanesthetized and unrestrained conditions with a remote transmitter inserted. Thereafter, the effect of NXC736 on the cardiovascular system was evaluated by measuring the heart rate for four beagle dogs, and it was confirmed with the naked eye whether abnormal symptoms appeared.
In this experiment, the experimental material was administered to each of the four beagle dogs over four steps. A 0.5% MC aqueous solution, which is an excipient, was administered as a control material in the first administration step (NXC7365 at 0 mg/kg), NXC736 at 12.5 mg/kg was administered in the second administration step, NXC736 at 25 mg/kg was administered in the third administration step, and NXC736 at 50 mg/kg was administered in the fourth administration step. The 1st to 4th administrations were performed at intervals of 1 week. In addition, at 0 hours before administration of the experimental material and at 0.5 hours, 1 hour, 2 hours, 3 hours, 4 hours, 6 hours, 8 hours, 12 hours and 24 hours after administration of the test material, the beagle dog's heart rate were measured.

[4] = molecular target: hERG potassium ion channels (Homo sapiens, UniProt Q12809)
[5] = oral 3 mg/kg, peripheral blood, 4 hours, 3 mg/kg

Chain of hERG potassium ion channels (Q12809 whole entry): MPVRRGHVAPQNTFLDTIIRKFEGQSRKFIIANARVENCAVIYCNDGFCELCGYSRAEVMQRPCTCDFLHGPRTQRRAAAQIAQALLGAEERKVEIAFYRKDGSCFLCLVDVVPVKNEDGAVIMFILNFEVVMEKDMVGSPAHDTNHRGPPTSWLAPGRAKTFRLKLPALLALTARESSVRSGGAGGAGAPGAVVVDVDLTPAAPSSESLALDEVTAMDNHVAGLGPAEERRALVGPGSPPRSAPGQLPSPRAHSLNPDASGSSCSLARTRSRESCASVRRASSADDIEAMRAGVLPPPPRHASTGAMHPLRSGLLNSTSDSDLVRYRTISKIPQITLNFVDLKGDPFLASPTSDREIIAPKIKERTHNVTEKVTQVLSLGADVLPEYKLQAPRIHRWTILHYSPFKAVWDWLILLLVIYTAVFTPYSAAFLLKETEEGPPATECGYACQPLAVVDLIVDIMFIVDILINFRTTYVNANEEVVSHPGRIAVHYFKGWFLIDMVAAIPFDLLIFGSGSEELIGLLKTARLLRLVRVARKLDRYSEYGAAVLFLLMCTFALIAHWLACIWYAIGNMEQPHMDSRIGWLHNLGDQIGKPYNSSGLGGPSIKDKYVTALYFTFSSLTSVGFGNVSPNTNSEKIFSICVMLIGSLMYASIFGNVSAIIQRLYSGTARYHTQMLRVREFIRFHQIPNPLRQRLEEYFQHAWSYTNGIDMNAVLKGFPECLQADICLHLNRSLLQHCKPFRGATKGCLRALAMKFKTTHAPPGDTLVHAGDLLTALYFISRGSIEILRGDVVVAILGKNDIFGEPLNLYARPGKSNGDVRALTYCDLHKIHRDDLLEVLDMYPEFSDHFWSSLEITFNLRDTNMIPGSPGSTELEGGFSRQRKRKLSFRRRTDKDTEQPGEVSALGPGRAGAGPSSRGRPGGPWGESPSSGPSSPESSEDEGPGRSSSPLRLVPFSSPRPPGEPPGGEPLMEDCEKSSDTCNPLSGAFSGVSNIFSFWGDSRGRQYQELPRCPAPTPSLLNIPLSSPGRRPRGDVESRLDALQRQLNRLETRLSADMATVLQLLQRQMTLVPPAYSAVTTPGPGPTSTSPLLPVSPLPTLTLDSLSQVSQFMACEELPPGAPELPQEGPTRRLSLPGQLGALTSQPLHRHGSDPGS

Structure (SMILES): CN(Cc1cnc2nc(N)nc(N)c2n1)c1ccc(C(=O)N[C@@H](CCC(=O)O)C(=O)O)cc1 [MTX, methotrexate, reference compound]
- Disease activity index (DAI) and AUC compared to negative control (vehicle) (DSS-induced colitis mice; MTX 3 mg/kg intraperitoneally three times a week): statistically significant reduction effect

Structure (SMILES): CCCCCCCCCCn1cc(CCC(N)(CO)CO)nn1 [NXC736, 2-amino-2-(2-(1-decyl-1H-1,2,3-triazol-4-yl)ethyl)propane-1,3-diol]
- Cell number in bone marrow, percentage of control based on 0 time ([1]; 3 mg/kg, 4 hours after administration): 135% and 120%
- Cell number in bone marrow, percentage of control based on 0 time ([1]; 3 mg/kg, 24 hours after administration): 131% and 118%
- Time until which the suppressive effect on T cell number was maintained to some extent ([1]; 3 mg/kg, reduced from 4 hours, then recovered): 24 h
- Time until which the reduction of cell number in peripheral blood was maintained ([1]; oral 3 mg/kg, peripheral blood): 12 h
- CD4 T cell number in peripheral blood, percentage of control based on 0 time [1, 5]: 16.4% and 17.6%
- CD8 T cell number in peripheral blood, percentage of control based on 0 time [1, 5]: 5.9% and 9.3%
- T cell number in peripheral blood, percentage of control based on 0 time [1, 5]: 40.6% and 41.6%
- Cell number level recovered in peripheral blood, percentage of control ([1]; oral 3 mg/kg, peripheral blood, 36 hours): 88.9%
- Time until which the suppressive effect on T cells was maintained ([2]; oral 10 mg/kg, peripheral blood): 24 h
- Change of cell number in bone marrow ([2]; oral, bone marrow): no change or a tendency to increase
- Suppressive effect on number of T cells in peripheral blood ([2]; oral, peripheral blood, dose-dependent (doses of the three values not given)): 70% and 80% and 87%
- Clinical indicators (body weight loss, stool concentration, intestinal bleeding) compared to ozanimod (DSS-induced colitis mice; NXC736 5 mg/kg and 10 mg/kg vs ozanimod 5 mg/kg): equivalent values or more
- Disease activity index (DAI) and AUC compared to negative control (vehicle) (DSS-induced colitis mice; NXC736 5 mg/kg orally once a day for 7 days): statistically significant reduction effect
- Disease activity index (DAI) and AUC compared to negative control (vehicle) (DSS-induced colitis mice; NXC736 10 mg/kg orally once a day for 7 days): statistically significant reduction effect
- General symptoms observed with the naked eye [3]: no abnormal symptoms
- Change in heart rate ([3]; 0 to 24 hours): no change in heart rate
- Hill coefficient [4]: 1.527
- Compensated suppression rate of hERG channel currents ([4]; 1 μM): 9.94±1.96%
- Compensated suppression rate of hERG channel currents ([4]; 3 μM): 13.98±4.48%
- Compensated suppression rate of hERG channel currents ([4]; 10 μM): 35.03±12.09%
- Compensated suppression rate of hERG channel currents ([4]; 30 μM): 82.62±7.31%

Structure (SMILES): CC(C)Oc1ccc(-c2nc(-c3cccc4c3CC[C@@H]4NCCO)no2)cc1C#N [ozanimod, reference compound]
- Disease activity index (DAI) and AUC compared to negative control (vehicle) (DSS-induced colitis mice; ozanimod 5 mg/kg orally once a day): statistically significant reduction effect
